Measured values from US8101615B2, “1,4-diaryl-dihydropyrimidin-2-ones and their use as human neutrophil elastase inhibitors” (Bayer Pharma Aktiengesellschaft, priority 2004, dated 2012).

Columns and labels:
[1] = biological target: T1, human neutrophil elastase (HNE) (Homo sapiens, UniProt P08246); assay: In vitro inhibition of HNE using a fluorogenic peptide substrate (Example I-A); assay type: biochemical; settings: fluorogenic peptide substrate MeOSuc-Ala-Ala-Pro-Val-AMC, 384 MTP assay format
T1 construct: purchased SERVA Electrophoresis GmbH, Heidelberg, Germany #20927.01
T1 sequence (P08246 30-267): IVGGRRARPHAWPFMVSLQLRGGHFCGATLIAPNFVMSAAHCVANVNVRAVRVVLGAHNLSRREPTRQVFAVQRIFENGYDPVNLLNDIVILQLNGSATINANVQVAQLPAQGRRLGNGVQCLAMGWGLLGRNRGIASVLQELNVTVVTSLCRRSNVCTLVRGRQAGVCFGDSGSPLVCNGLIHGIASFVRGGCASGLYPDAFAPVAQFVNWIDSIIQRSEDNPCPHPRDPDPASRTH
Experimental: I. In vitro Enzyme Assays of Human Neutrophil Elastase (HNE)
The test solution is prepared by mixing 10 μl of test compound dilution, 20 μl of HNE enzyme dilution (final concentration 8-0.4 μU/ml, routinely 2.1 μU/ml) and 20 μl of substrate dilution (final concentration 1 mM-1 μM, routinely 20 μM), respectively. The solution is incubated for 0-2 hrs at 37° C. (routinely one hour). The fluorescence of the liberated AMC due to the enzymatic reaction is measured at 37° C. (TECAN spectra fluor plus plate reader). […] IC50 values are determined by RFU-versus-[I] plots. Km and Km(app.) values are determined by Lineweaver-Burk plots and converted to Ki values by Dixon plots.

[2] = test system: human polymorphonuclear cells (PMNs); assay: In vitro PMN elastolysis assay (Example II-A); assay type: cell-based; settings: mean±s.e.m.
Experimental: This assay is used to determine the elastolytic potential of human polymorphonuclear cells (PMNs) and assess the proportion of degradation due to neutrophil elastase [cf. Z. W. She et al., Am. J. Respir. Cell. Mol. Biol. 9, 386-392 (1993)].
Tritiated elastin, in suspension, is coated on to a 96 well plate at 10 μg per well. Test and reference [ZD-0892 (J. Med. Chem. 40, 1876-1885, 3173-3181 (1997), WO 95/21855) and α1 protease inhibitor (α1PI)] compounds are added to the wells at the appropriate concentrations. Human PMNs are separated from peripheral venous blood of healthy donors and resuspended in culture media. The neutrophils are added to the coated wells at concentrations ranging between 1×10^6 to 1×10^5 cells per well. Porcine pancreatic elastase (1.3 μM) is used as a positive control for the assay, and α1PI (1.2 μM) is used as the positive inhibitor of neutrophil elastase. The cellular control is PMNs without compound at each appropriate cell density. The cells plus compounds are incubated in a humidified incubator at 37° C. for 4 hours. The plates are centrifuged to allow the harvest of cell supernatant only. […] The plates are dried until no liquid is visible in the wells and read in a beta counter for 3 minutes per well. […]
The compounds of this invention are evaluated for their inhibitory activity in this HNE-dependent model of neutrophil elastolysis.

**Q.** `CC1=C(CO)C(c2ccc(C#N)cc2)NC(=O)N1c1cccc(C(F)(F)F)c1` (centres unmarked) [Example 1, 4-{5-(Hydroxymethyl)-6-methyl-2-oxo-1-[3-(trifluoromethyl)phenyl]-1,2,3,4-tetrahydropyrimidin-4-yl}benzonitrile] was tested. Which IC50 [1] did it give?
**A.** Its IC50 is 0.02 µM.

**Q.** For `CC1=C(C(=O)NC2CC2)C(c2ccc(C#N)cc2)NC(=O)N1c1cccc(C(F)(F)F)c1` (centres unmarked) [Example 6, 4-(4-Cyanophenyl)-N-cyclopropyl-6-methyl-2-oxo-1-[3-(trifluoromethyl)phenyl]-1,2,3,4-tetrahydropyrimidine-5-carboxamide], which IC50 [1] is on record?
**A.** The IC50 was 0.2 µM.

**Q.** For `CC1=C(C(=O)NCc2ccccc2F)C(c2ccc(C#N)cc2)NC(=O)N1c1cccc(C(F)(F)F)c1` (centres unmarked) [Example 14], which IC50 [1] is on record?
**A.** The IC50 was 1 µM.

**Q.** With `CC1=C(C(=O)C2CCCCC2)C(c2ccc(C#N)cc2)NC(=O)N1c1cccc(C(F)(F)F)c1` (centres unmarked) [Example 21, 4-{5-(Cyclohexylcarbonyl)-6-methyl-2-oxo-1-[3-(trifluoromethyl)phenyl]-1,2,3,4-tetrahydropyrimidin-4-yl}benzonitrile] as the compound, how does the IC50 [1] read?
**A.** The IC50 was 0.13 µM.

**Q.** Which IC50 [1] does the source give for `COC(=O)c1coc(CN2C(=O)N(c3cccc(C(F)(F)F)c3)C(C)=C(C(=O)C3CC3)C2c2ccc(C#N)cc2)n1` (centres unmarked) [Example 43, Methyl 2-{[6-(4-cyanophenyl)-5-(cyclopropylcarbonyl)-4-methyl-2-oxo-3-[3-(trifluoromethyl)phenyl]-3,6-dihydropyrimidin-1(2H)-yl]methyl}-1,3-oxazole-4-carboxylate] here?
**A.** The IC50 was 0.023 µM.

**Q.** Which IC50 [1] does the source give for `CC1=C(C(=O)C2CC2)C(c2ccc(C#N)cc2)N(CC(=O)NS(=O)(=O)CC(F)(F)F)C(=O)N1c1cccc(C(F)(F)F)c1` (centres unmarked) [Example 45, 2-[6-(4-Cyanophenyl)-5-(cyclopropylcarbonyl)-4-methyl-2-oxo-3-[3-(trifluoromethyl)phenyl]-3,6-dihydropyrimidin-1(2H)-yl]-N-[(2,2,2-trifluoroethyl)sulfonyl]acetamide] here?
**A.** The IC50 was 0.02 µM.

**Q.** How did the IC50 [1] turn out when `CC1=C(C(=O)NS(=O)(=O)CC(F)(F)F)C(c2ccc(C#N)cc2)N(CC(=O)OC(C)(C)C)C(=O)N1c1cccc(C(F)(F)F)c1` (centres unmarked) [Example 69] was run?
**A.** Its IC50 is 0.05 µM.

**Q.** `CC1=C(C(=O)NS(=O)(=O)c2ccc(C#N)cc2)C(c2ccc(C#N)cc2)NC(=O)N1c1cccc(C(F)(F)F)c1` (centres unmarked) [Example 73] was tested. Which IC50 [1] did it give?
**A.** The IC50 was 1 µM.

**Q.** Which IC50 [1] does the source give for `CC1=C(CCC(=O)O)C(c2ccc(C#N)cc2)NC(=O)N1c1cccc(C(F)(F)F)c1` (centres unmarked) [Example 78, 3-{4-(4-Cyanophenyl)-6-methyl-2-oxo-1-[3-(trifluoromethyl)phenyl]-1,2,3,4-tetrahydropyrimidin-5-yl}propanoic acid] here?
**A.** The IC50 was 0.05 µM.

**Q.** With `COc1ccc(C(=O)N[C@H](C(=O)N2CCC[C@H]2C(=O)N[C@H](C(=O)C(F)(F)F)C(C)C)C(C)C)cc1` [ZD-0892] as the compound, how does the IC50 ([2]; n=2 different donors at 3.6×10^5 cells per well) read?
**A.** The IC50 was 0.0455 ± 0.00775 µM.

**Q.** “α1PI: α1 protease inhibitor, used as the positive inhibitor of neutrophil elastase” was tested. Which “inhibition of 3H-elastin elastolysis” value ([2]; at 1.2 μM, n=3 different donors at 3.6×10^5 cells per well) did it give?
**A.** The value was 83.46±3.97%.
